{"source": "patent US11919901B2", "about": "(Syndax Pharmaceuticals, Inc., priority 2021, dated 2024)", "biological_target": "Menin-MLL (Homo sapiens (Human), UniProt O00255)", "sequence (O00255 whole entry)": "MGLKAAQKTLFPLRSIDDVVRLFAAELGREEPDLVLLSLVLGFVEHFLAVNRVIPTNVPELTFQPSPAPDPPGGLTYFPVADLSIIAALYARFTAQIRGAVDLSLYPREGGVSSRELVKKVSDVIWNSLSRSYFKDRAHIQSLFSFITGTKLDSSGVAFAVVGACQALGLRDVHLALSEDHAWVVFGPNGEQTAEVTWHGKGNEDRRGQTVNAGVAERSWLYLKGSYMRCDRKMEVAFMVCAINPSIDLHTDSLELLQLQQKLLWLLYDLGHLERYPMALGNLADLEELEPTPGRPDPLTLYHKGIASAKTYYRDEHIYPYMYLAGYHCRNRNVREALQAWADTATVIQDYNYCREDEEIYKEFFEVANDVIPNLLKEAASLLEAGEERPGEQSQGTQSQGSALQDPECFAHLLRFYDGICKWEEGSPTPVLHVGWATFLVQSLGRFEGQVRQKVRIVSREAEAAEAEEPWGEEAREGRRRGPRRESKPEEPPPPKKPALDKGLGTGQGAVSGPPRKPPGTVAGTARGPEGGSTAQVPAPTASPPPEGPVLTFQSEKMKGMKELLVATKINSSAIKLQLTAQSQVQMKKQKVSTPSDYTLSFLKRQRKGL", "test": "Determination of binding constants (Ki) to Menin-MLL (HTRF)", "settings": "HTRF, 0.25 nM H-FL-Menin, 3.2 nM FITC-MLL-4-43, 24 hr incubation; for Ki: read-out: Menin-MLL Ki HTRF Assay: Ki"}
{"compound": "CC(C)N(C(=O)c1cc(F)ccc1Oc1cncnc1N1CC2(CCN(C[C@@H]3CC[C@@H](NS(=O)(=O)NCC(F)(F)F)CO3)CC2)C1)[C@@H]1CCOC1", "note": "[Compound 171, 5-Fluoro-N-isopropyl-N-((R)-tetrahydrofuran-3-yl)-2-((4-(7-(((2S,5R)-5-((N-(2,2,2-trifluoroethyl)sulfamoyl)amino)tetrahydro-2H-pyran-2-yl)methyl)-2,7-diazaspiro[3.5]nonan-2-yl)pyrimidin-5-yl)oxy)benzamide]", "values": [{"measurement": "Ki", "value": "< 1", "unit": "nM"}]}
{"compound": "CC(C)N(CC(F)F)C(=O)c1cc(F)ccc1Oc1cncnc1N1CC2(CCN(C[C@@H]3CC[C@@H](NS(=O)(=O)C4CCOCC4)CO3)CC2)C1", "note": "[Compound 98, N-(2,2-Difluoroethyl)-5-fluoro-N-isopropyl-2-((4-(7-(((2S,5R)-5-((tetrahydro-2H-pyran)-4-sulfonamido)tetrahydro-2H-pyran-2-yl)methyl)-2,7-diazaspiro[3.5]nonan-2-yl)pyrimidin-5-yl)oxy)benzamide]", "values": [{"measurement": "EC50", "value": "< 50", "unit": "nM"}, {"measurement": "Ki", "value": "< 1", "unit": "nM"}]}
{"compound": "CC(C)N(C(=O)c1cc(F)ccc1Oc1cncnc1N1CC2(CCN(C[C@@H]3CC[C@@H](NS(C)(=O)=O)CO3)CC2)C1)C1CC(F)(F)C1", "note": "[Compound 112, N-(3,3-Difluorocyclobutyl)-5-fluoro-N-isopropyl-2-((4-(7-(((2S,5R)-5-(methylsulfonamido)tetrahydro-2H-pyran-2-yl)methyl)-2,7-diazaspiro[3.5]nonan-2-yl)pyrimidin-5-yl)oxy)benzamide]", "values": [{"measurement": "EC50", "value": "< 50", "unit": "nM"}, {"measurement": "Ki", "value": "< 1", "unit": "nM"}]}
{"compound": "CCN(C(=O)c1cc(F)ccc1Oc1cncnc1N1CC2(CCN(C[C@@H]3CC[C@@H](NS(=O)(=O)c4ccccc4C)CO3)CC2)C1)C(C)C", "note": "[Compound 56, N-Ethyl-5-fluoro-N-isopropyl-2-((4-(7-(((2S,5R)-5-((2-methylphenyl)sulfonamido)tetrahydro-2H-pyran-2-yl)methyl)-2,7-diazaspiro[3.5]nonan-2-yl)pyrimidin-5-yl)oxy)benzamide]", "values": [{"measurement": "EC50", "value": "< 50", "unit": "nM"}, {"measurement": "Ki", "value": "< 1", "unit": "nM"}]}
{"compound": "CCS(=O)(=O)N[C@@H]1CC[C@@H](CN2CCC3(CC2)CN(c2ncncc2Oc2ccc(F)cc2C(=O)N2[C@H](C)COC[C@@H]2C)C3)OC1", "note": "[Compound 24, N-((3R,6S)-6-((2-(5-(2-((3S,5R)-3,5-dimethylmorpholine-4-carbonyl)-4-fluorophenoxy)pyrimidin-4-yl)-2,7-diazaspiro[3.5]nonan-7-yl)methyl)tetrahydro-2H-pyran-3-yl)ethanesulfonamide]", "values": [{"measurement": "EC50", "value": "< 50", "unit": "nM"}, {"measurement": "Ki", "value": "< 1", "unit": "nM"}]}
{"compound": "CC(C)N(CC(F)F)C(=O)c1cc(F)ccc1Oc1nncnc1N1CC2(CCN(C[C@@H]3CC[C@@H](NS(=O)(=O)c4cnn(C)c4)CO3)CC2)C1", "note": "[Compound 187, N-(2,2-Difluoroethyl)-5-fluoro-N-isopropyl-2-((5-(7-(((2S,5R)-5-((1-methyl-1H-pyrazole)-4-sulfonamido)tetrahydro-2H-pyran-2-yl)methyl)-2,7-diazaspiro[3.5]nonan-2-yl)-1,2,4-triazin-6-yl)oxy)benzamide]", "values": [{"measurement": "Ki", "value": "< 1", "unit": "nM"}]}
{"compound": "CCN(C)S(=O)(=O)N[C@@H]1CC[C@@H](CN2CCC3(CC2)CN(c2ncncc2Oc2ccc(F)cc2C(=O)N(C(C)C)[C@H]2CCOC2)C3)OC1", "note": "[Compound 179, 2-((4-(7-(((2S,5R)-5-((N-Ethyl-N-methylsulfamoyl)amino)tetrahydro-2H-pyran-2-yl)methyl)-2,7-diazaspiro[3.5]nonan-2-yl)pyrimidin-5-yl)oxy)-5-fluoro-N-isopropyl-N-((S)-tetrahydrofuran-3-yl)benzamide]", "values": [{"measurement": "Ki", "value": "< 1", "unit": "nM"}]}
{"compound": "CCN(C(=O)c1cc(F)ccc1Oc1cnc(C)nc1N1CC2(CCN(C[C@@H]3CC[C@@H](NS(=O)(=O)CC)CO3)CC2)C1)C(C)C", "note": "[Compound 216, N-Ethyl-2-((4-(7-(((2S,5R)-5-(ethylsulfonamido)tetrahydro-2H-pyran-2-yl)methyl)-2,7-diazaspiro[3.5]nonan-2-yl)-2-methylpyrimidin-5-yl)oxy)-5-fluoro-N-isopropylbenzamide]", "values": [{"measurement": "Ki", "value": "1 to 1.5", "unit": "nM"}]}
{"compound": "CC(C)N(C(=O)c1cc(F)ccc1Oc1cncnc1N1CC2(CCN(C[C@@H]3CC[C@@H](NS(C)(=O)=O)CO3)CC2)C1)C1CC1", "note": "[Compound 18, N-cyclopropyl-5-fluoro-N-isopropyl-2-((4-(7-(((2S,5R)-5-(methylsulfonamido)tetrahydro-2H-pyran-2-yl)methyl)-2,7-diazaspiro[3.5]nonan-2-yl)pyrimidin-5-yl)oxy)benzamide]", "values": [{"measurement": "EC50", "value": "< 50", "unit": "nM"}, {"measurement": "Ki", "value": "< 1", "unit": "nM"}]}
{"compound": "C[C@@H]1COC[C@@H](C)N1C(=O)c1cc(F)ccc1Oc1cncnc1N1CC2(CCN(C[C@@H]3CC[C@@H](NS(=O)(=O)C4CC4)CO3)CC2)C1", "note": "[Compound 31, N-((3R,6S)-6-((2-(5-(2-((3R,5R)-3,5-dimethylmorpholine-4-carbonyl)-4-fluorophenoxy)pyrimidin-4-yl)-2,7-diazaspiro[3.5]nonan-7-yl)methyl)tetrahydro-2H-pyran-3-yl)cyclopropanesulfonamide]", "values": [{"measurement": "EC50", "value": "< 50", "unit": "nM"}, {"measurement": "Ki", "value": "< 1", "unit": "nM"}]}
{"compound": "CC(C)N(CC(F)F)C(=O)c1cc(F)ccc1Oc1cncnc1N1CC2(CCN(C[C@@H]3CC[C@@H](NS(C)(=O)=O)CO3)CC2)C1", "note": "[Compound 96, N-(2,2-Difluoroethyl)-5-fluoro-N-isopropyl-2-((4-(7-(((2S,5R)-5-(methylsulfonamido)tetrahydro-2H-pyran-2-yl)methyl)-2,7-diazaspiro[3.5]nonan-2-yl)pyrimidin-5-yl)oxy)benzamide]", "values": [{"measurement": "EC50", "value": "< 50", "unit": "nM"}, {"measurement": "Ki", "value": "< 1", "unit": "nM"}]}
{"compound": "CC(C)N(C(=O)c1cc(F)ccc1Oc1cncnc1N1CC2(CCN(C[C@@H]3CC[C@@H](N[S@@](=N)(=O)c4ccccc4)CO3)CC2)C1)C(C)C", "note": "(single isomer, unassigned) [Compound 229]", "values": [{"measurement": "Ki", "value": "< 1", "unit": "nM"}]}
{"compound": "C[C@@H]1COC[C@H](C)N1C(=O)c1cc(F)ccc1Oc1cncnc1N1CC2(CCN(C[C@@H]3CC[C@@H](NS(=O)(=O)NCC(F)(F)F)CO3)CC2)C1", "note": "[Compound 162, {[(3R,6S)-6-{[2-(5-{2-[(3R,5S)-3,5-Dimethylmorpholine-4-carbonyl]-4-fluorophenoxy}pyrimidin-4-yl)-2,7-diazaspiro[3.5]nonan-7-yl]methyl}oxan-3-yl]sulfamoyl}(2,2,2-trifluoroethyl)amine]", "values": [{"measurement": "Ki", "value": "< 1", "unit": "nM"}]}
{"compound": "CCN(C(=O)c1cc(F)ccc1Oc1cncnc1N1CC2(CCN(C[C@@H]3CC[C@@H](NS(=O)(=O)CCN(C)C)CO3)CC2)C1)C(C)C", "note": "[Compound 220, 2-((4-(7-(((2S,5R)-5-((2-(Dimethylamino)ethyl)sulfonamido)tetrahydro-2H-pyran-2-yl)methyl)-2,7-diazaspiro[3.5]nonan-2-yl)pyrimidin-5-yl)oxy)-N-ethyl-5-fluoro-N-isopropylbenzamide]", "values": [{"measurement": "Ki", "value": "1 to 1.5", "unit": "nM"}]}
{"compound": "CCN(C(=O)c1cc(F)ccc1Oc1cncnc1N1CC2(CCN(C[C@H]3CC[C@H](NS(=O)(=O)CC)CO3)CC2)C1)C(C)C", "note": "(stereo in doubt) [Compound 52, N-ethyl-2-((4-(7-(((2R,5S)-5-(ethylsulfonamido)tetrahydro-2H-pyran-2-yl)methyl)-2,7-diazaspiro[3.5]nonan-2-yl)pyrimidin-5-yl)oxy)-5-fluoro-N-isopropylbenzamide]", "values": [{"measurement": "EC50", "value": "< 50", "unit": "nM"}]}
{"compound": "CCS(=O)(=O)N[C@@H]1CC[C@@H](CN2CCC3(CC2)CN(c2ncncc2Oc2ccc(F)cc2C(=O)N(C(C)C)[C@@H]2CC[C@H]2O)C3)OC1", "note": "(single isomer, unassigned) [Compound 256]", "values": [{"measurement": "EC50", "value": "< 50", "unit": "nM"}, {"measurement": "Ki", "value": "< 1", "unit": "nM"}]}
{"compound": "CC(C)N(C(=O)c1cc(F)ccc1Oc1cncnc1N1CC2(CCN(C[C@@H]3CC[C@@H](NS(=O)(=O)C4COC4)CO3)CC2)C1)C1CC1", "note": "[Compound 22, N-cyclopropyl-5-fluoro-N-isopropyl-2-((4-(7-(((2S,5R)-5-(oxetane-3-sulfonamido)tetrahydro-2H-pyran-2-yl)methyl)-2,7-diazaspiro[3.5]nonan-2-yl)pyrimidin-5-yl)oxy)benzamide]", "values": [{"measurement": "EC50", "value": "< 50", "unit": "nM"}, {"measurement": "Ki", "value": "< 1", "unit": "nM"}]}
{"compound": "CC(C)N(CC(F)(F)F)C(=O)c1cc(F)ccc1Oc1nncnc1N1CC2(CCN(C[C@@H]3CC[C@@H](NS(=O)(=O)C4CC4)CO3)CC2)C1", "note": "[Compound 191, 2-((5-(7-(((2S,5R)-5-(Cyclopropanesulfonamido)tetrahydro-2H-pyran-2-yl)methyl)-2,7-diazaspiro[3.5]nonan-2-yl)-1,2,4-triazin-6-yl)oxy)-5-fluoro-N-isopropyl-N-(2,2,2-trifluoroethyl)benzamide]", "values": [{"measurement": "Ki", "value": "< 1", "unit": "nM"}]}
{"compound": "CC(C)N(C(=O)c1cc(F)ccc1Oc1cncnc1N1CC2(CCN(C[C@@H]3CC[C@@H](NS(=O)(=O)N4CC5(CCO5)C4)CO3)CC2)C1)C(C)C", "note": "[Compound 221, 2-((4-(7-(((2S,5R)-5-(1-Oxa-6-azaspiro[3.3]heptane-6-sulfonamido)tetrahydro-2H-pyran-2-yl)methyl)-2,7-diazaspiro[3.5]nonan-2-yl)pyrimidin-5-yl)oxy)-5-fluoro-N,N-diisopropylbenzamide]", "values": [{"measurement": "Ki", "value": "< 1", "unit": "nM"}]}
{"compound": "CCS(=O)(=O)N[C@@H]1CC[C@@H](CN2CCC3(CC2)CN(c2ncncc2Oc2ccc(F)cc2C(=O)N(CC(F)(F)F)C(C)C)C3)OC1", "note": "[Compound 152, 2-((4-(7-(((2S,5R)-5-(Ethylsulfonamido)tetrahydro-2H-pyran-2-yl)methyl)-2,7-diazaspiro[3.5]nonan-2-yl)pyrimidin-5-yl)oxy)-5-fluoro-N-isopropyl-N-(2,2,2-trifluoroethyl)benzamide]", "values": [{"measurement": "EC50", "value": "< 50", "unit": "nM"}, {"measurement": "Ki", "value": "< 1", "unit": "nM"}]}
{"compound": "CC(C)N(C)C(=O)c1cc(F)ccc1Oc1cncnc1N1CC2(CCN(C[C@@H]3CC[C@@H](NS(=O)(=O)c4cnn(C)c4)CO3)CC2)C1", "note": "[Compound 139, 5-Fluoro-N-isopropyl-N-methyl-2-((4-(7-(((2S,5R)-5-((1-methyl-1H-pyrazole)-4-sulfonamido)tetrahydro-2H-pyran-2-yl)methyl)-2,7-diazaspiro[3.5]nonan-2-yl)pyrimidin-5-yl)oxy)benzamide]", "values": [{"measurement": "Ki", "value": "< 1", "unit": "nM"}]}
{"compound": "CCNS(=O)(=O)N[C@@H]1CC[C@@H](CN2CCC3(CC2)CN(c2ncncc2Oc2ccc(F)cc2C(=O)N(C(C)C)[C@@H]2CCOC2)C3)OC1", "note": "[Compound 172, 2-((4-(7-(((2S,5R)-5-((N-ethylsulfamoyl)amino)tetrahydro-2H-pyran-2-yl)methyl)-2,7-diazaspiro[3.5]nonan-2-yl)pyrimidin-5-yl)oxy)-5-fluoro-N-isopropyl-N-((R)-tetrahydrofuran-3-yl)benzamide]", "values": [{"measurement": "Ki", "value": "< 1", "unit": "nM"}]}
